Test results reported in ChEMBL document CHEMBL1141115, “Synthesis of leukotriene B4 antagonists labeled with In-111 or Tc-99m to image infectious and inflammatory foci” (J Med Chem, 2005).

Legend:
[1] = target: T1, Leukotriene B4 receptor 1 (Homo sapiens, UniProt Q15722); test: Inhibitory concentration against human leukotriene B4 receptor using competing agent [3H]-LTB4 as radioligand in pH 7.2 buffer, for 1 hr at 37 degree C
[2] = target: T1, Leukotriene B4 receptor 1; test: Inhibitory concentration against human leukotriene B4 receptor using competing agent [111In]-(17)] as radioligand in pH 7.2 buffer, for 1 hr at 37 degree C; (n=2)
[3] = target: T1, Leukotriene B4 receptor 1; test: Inhibitory concentration against human leukotriene B4 receptor using competing agent [3H]-LTB4 as radioligand in pH 7.2 buffer upon incubation for 1 hr at 37 degree C; (n=4)
[4] = target: T1, Leukotriene B4 receptor 1; test: Inhibitory concentration against human leukotriene B4 receptor using competing agent [3H]-LTB4 as radioligand in pH 7.2 buffer, for 1 h at 37 degree C; (n=2)

T1 sequence (Q15722 whole entry): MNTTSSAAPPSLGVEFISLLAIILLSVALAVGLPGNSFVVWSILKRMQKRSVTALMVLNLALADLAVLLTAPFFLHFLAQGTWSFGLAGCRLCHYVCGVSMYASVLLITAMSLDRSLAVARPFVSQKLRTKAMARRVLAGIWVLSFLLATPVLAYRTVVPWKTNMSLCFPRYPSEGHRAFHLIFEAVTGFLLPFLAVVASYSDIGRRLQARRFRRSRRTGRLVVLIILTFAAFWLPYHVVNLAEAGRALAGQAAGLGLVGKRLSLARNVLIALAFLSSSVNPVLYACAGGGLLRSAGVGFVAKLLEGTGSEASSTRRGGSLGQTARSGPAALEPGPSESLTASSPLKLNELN

Structure (SMILES) | IC50 [2] [nM] | IC50 [4] [nM] | also measured
CC(C)(CCCCOc1cc(-c2ccccc2)cc(-c2ccccc2)n1)c1nnn[nH]1 |  |  | IC50 [1]: 20 nM
CC(C)(CCCCOc1cc(-c2ccccc2)cc(-c2ccccc2)n1)c1nnnn1CCCCC(=O)NCCCOCCOCCOCCCNC(=O)c1ccc(N/N=C/c2ccccc2S(=O)(=O)O)nc1 | 44 |  | IC50 [3]: 45 nM
CC(C)(CCCCOc1cc(-c2ccccc2)cc(-c2ccccc2)n1)c1nnnn1CCCCC(=O)NCCCOCCOCCOCCCNC(=O)[C@H](CS(=O)(=O)O)NC(=O)[C@H](CS(=O)(=O)O)NC(=O)[C@H](CS(=O)(=O)O)NC(=O)[C@H](CS(=O)(=O)O)NC(=O)c1ccc(N/N=C/c2ccccc2)nc1 | 16 |  | 
CC(C)(CCCCOc1cc(-c2ccccc2)cc(-c2ccccc2)n1)c1nnnn1CCCCC(=O)NCCCOCCOCCOCCCNC(=O)[C@H](CS(=O)(=O)O)NC(=O)[C@H](CS(=O)(=O)O)NC(=O)[C@H](CS(=O)(=O)O)NC(=O)[C@H](CS(=O)(=O)O)NC(=O)CC[C@H](N)C(=O)N[C@@H](CS(=O)(=O)O)C(=O)N[C@@H](CS(=O)(=O)O)C(=O)N[C@@H](CS(=O)(=O)O)C(=O)N[C@@H](CS(=O)(=O)O)C(=O)NCCCOCCOCCOCCCNC(=O)CCCCn1nnnc1C(C)(C)CCCCOc1cc(-c2ccccc2)cc(-c2ccccc2)n1 |  | 8 | 
CC(C)(CCCCOc1cc(-c2ccccc2)cc(-c2ccccc2)n1)c1nnnn1CCCCC(=O)NCCCOCCOCCOCCCNC(=O)[C@H](CS(=O)(=O)O)NC(=O)[C@H](CS(=O)(=O)O)NC(=O)[C@H](CS(=O)(=O)O)NC(=O)[C@H](CS(=O)(=O)O)NC(=O)CC[C@H](NC(=O)CN(CCN(CCN(CC(=O)O)CC(=O)O)CC(=O)O)CC(=O)O)C(=O)N[C@@H](CS(=O)(=O)O)C(=O)N[C@@H](CS(=O)(=O)O)C(=O)N[C@@H](CS(=O)(=O)O)C(=O)N[C@@H](CS(=O)(=O)O)C(=O)NCCCOCCOCCOCCCNC(=O)CCCCn1nnnc1C(C)(C)CCCCOc1cc(-c2ccccc2)cc(-c2ccccc2)n1 | 30 | 54 | 
CC(C)(CCCCOc1cc(-c2ccccc2)cc(-c2ccccc2)n1)c1nnnn1CCCCC(=O)NCCCOCCOCCOCCCNC(=O)[C@H](CS(=O)(=O)O)NC(=O)[C@H](CS(=O)(=O)O)NC(=O)[C@H](CS(=O)(=O)O)NC(=O)[C@H](CS(=O)(=O)O)NC(=O)CC[C@H](NC(=O)c1ccc(N/N=C/c2ccccc2)nc1)C(=O)N[C@@H](CS(=O)(=O)O)C(=O)N[C@@H](CS(=O)(=O)O)C(=O)N[C@@H](CS(=O)(=O)O)C(=O)N[C@@H](CS(=O)(=O)O)C(=O)NCCCOCCOCCOCCCNC(=O)CCCCn1nnnc1C(C)(C)CCCCOc1cc(-c2ccccc2)cc(-c2ccccc2)n1 | 230 |  | 
